Data as given in US20030040490A1, “Drugs containing combined active ingredients” (priority 2000, published 2003).

Tests used:
[1] = system: Sprague-Dawley rats (SD rats); experiment: oral sucrose loading test, voglibose and nateglinide (Example 2); assay type: in vivo, rat; conditions: 2.5 g/kg sucrose load, 0-120 min, average ± standard deviation
Procedure: An effect of the combined use of the α-glucosidase inhibitor (voglibose) and non-sulfonylurea insulin secretagogue (nateglinide) was examined in an oral sucrose loading test using Sprague-Dawley rats (SD rats). SD rats (7-week-old, male) were divided into 6 groups (6 rats per group) to give 1) a control group (distilled water administration), 2) a voglibose 0.1 mg/kg administration group, 3) a nateglinide 10 or 30 mg/kg administration group, and 4) a voglibose 0.1 mg/kg and nateglinide 10 or 30 mg/kg combined administration group. After fasting overnight, every rat was given the above-mentioned drugs by single or combined oral administration, and successively given 2.5 g/kg sucrose solution by oral administration. […] The plasma glucose level was measured by an enzymatic method using an L type Wako Glu2 (Wako Pure Chemical Industries, Ltd.). Increase in the plasma glucose area was calculated by a trapezoid method (Odaka et al., J. Nutr. Sci. Vitaminol., vol. 38, p. 37 (1992) using the plasma glucose level at each time point. The results are shown in Table 1.

[2] = system: Sprague-Dawley rats (SD rats); experiment: oral sucrose loading test, voglibose and repaglinide (Example 3); assay type: in vivo, rat; conditions: repaglinide 0.05 mg/kg oral, 2.5 g/kg sucrose load, 0-60 min, average ± standard deviation
Procedure: An effect of the combined use of the α-glucosidase inhibitor (voglibose) and the non-sulfonylurea insulin secretagogue (repaglinide) was examined in an oral sucrose loading test using Sprague-Dawley rats (SD rats).
SD rats (10-week-old, male) were divided into 4 groups (6 rats per group) to give 1) a control group (distilled water administration), 2) a repaglinide 0.05 mg/kg administration group, and 3) a voglibose 0.1 mg/kg and repaglinide 0.05 mg/kg combined administration group. After fasting overnight, every rat was given the above-mentioned drugs by single or combined oral administration, and successively given 2.5 g/kg of a sucrose solution by oral administration. The blood was drawn from the rat tail vein before administration of the sucrose solution and 15, 30 and 60 min after the administration, and the plasma glucose level was measured. The plasma glucose level was measured by an enzymatic method using an L type Wako Glu2 (Wako Pure Chemical Industries, Ltd.), and the plasma insulin level was measured by radio immunoassay using Insulotech-Mochida (Mochida Pharmaceutical Co., Ltd.).
Increase in the plasma glucose and plasma insulin areas was calculated by a trapezoid method (Odaka et al., J. Nutr. Sci. Vitaminol., vol. 38, p. 37 (1992)) using the plasma glucose and plasma insulin levels at each time point.

SMILES: OCC(CO)N[C@H]1C[C@](O)(CO)[C@@H](O)[C@H](O)[C@H]1O [voglibose]
- Increase in plasma glucose area ([1]; voglibose 0.1 mg/kg oral): 30 ± 10 mg·h/dL

SMILES: CCOc1cc(CC(=O)N[C@@H](CC(C)C)c2ccccc2N2CCCCC2)ccc1C(=O)O [repaglinide]
- Increase in plasma glucose area [2]: 6 ± 13 mg·h/dL
- Increase in plasma insulin area [2]: 432 ± 117 μU · h/ml

SMILES: CC(C)[C@H]1CC[C@H](C(=O)N[C@H](Cc2ccccc2)C(=O)O)CC1 [nateglinide]
- Increase in plasma glucose area ([1]; nateglinide 10 mg/kg oral): 65 ± 28 mg·h/dL
- Increase in plasma glucose area ([1]; nateglinide 30 mg/kg oral): 54 ± 15 mg·h/dL
